≈ marks a conversion by molar mass, not a printed value. Like-named read-outs stand apart in the source and are kept apart here.

Assay [1] addresses T1, Mycobacterium tuberculosis InhA (Mycobacterium tuberculosis, UniProt P9WGR1).
T1 construct: made in house; host or cells: E. coli
Description: Mycobacterium tuberculosis InhA Inhibition Assay (Enzyme Assay). The class given is biochemical. The note with it: 5 nM InhA, 50 μM DDCoA, 50 μM NADH, PIPES buffer pH 6.8, initial velocities of NADH consumption. How it is done: Mycobacterium tuberculosis InhA Inhibition Assay (Enzyme Assay)
InhA is able to reduce 2-trans enoyl-CoA esters with concomitant oxidation of NADH to NAD^+. The assay format is based on the kinetic detection of NADH consumption.
Assay for InhA inhibition is carried out with mycobacterium recombinant protein expressed and purified form E. coli. Standard assay conditions for the determination of kinetic constants and inhibitors activity use 5 nM of InhA, 50 μM of Dodecenoyl-CoA synthesized and purified as described by Quernard et al (DDCoA) and 50 μM of NADH as substrates, and it is carried out in 30 mM PIPES buffer pH 6.8, containing 0.05% of BSA. […] Triclosan is used as positive control in every experiment. One μl of compounds is added to the wells containing 25 μl of the DDCoA+NADH mix, the reaction is started by adding 50 μl of the enzyme solution. Fluorescence from NADH is followed at room temperature during 20 minutes in a fluorescent plate reader (excitation at 340 nm; emission at 480 nm). IC50 values are determined using initial velocities of NADH consumption.
Quernard A, Sacchettini J C, Dessen A, et al. Enzymatic characterization of the target for isoniazid in Mycobacterium tuberculosis. Biochemistry 1995; 34:8235-41.

In assay [2] the test system is Mycobacterium tuberculosis H37Rv. Description: Mycobacterium tuberculosis H37Rv Inhibition Assay (Whole Cell Assay). Format: cell-based. The note with it: ATCC 25618 / H37Rv, H37Rv strain (ATCC25618), Middlebrook 7H9, six days at 37° C., resazurin fluorescence after 48 hours. On the technique in general: Resazurin is reduced to fluorescent resorufin, in cell work by metabolically active cells.

T1 sequence (P9WGR1 whole entry, looked up): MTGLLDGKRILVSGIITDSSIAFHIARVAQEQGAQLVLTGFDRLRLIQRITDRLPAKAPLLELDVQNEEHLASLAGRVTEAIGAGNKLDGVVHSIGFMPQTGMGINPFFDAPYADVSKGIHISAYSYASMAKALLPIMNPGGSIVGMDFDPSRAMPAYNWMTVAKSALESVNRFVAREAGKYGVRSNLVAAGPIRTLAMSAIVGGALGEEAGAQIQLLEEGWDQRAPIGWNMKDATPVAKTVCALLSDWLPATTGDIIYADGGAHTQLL

Broadly, the IC50 is the midpoint of a concentration-inhibition curve. A word on the MIC: it is the least concentration at which growth counts as inhibited. A low value points to greater potency. With `Cc1cc(C)n(Cc2nnc(Nc3ccn(Cc4ccccc4Cl)n3)s2)n1` [Example 56, N-{1-[(2-chlorophenyl)methyl]-1H-pyrazol-3-yl}-5-[(3,5-dimethyl-1H-pyrazol-1-yl)methyl]-1,3,4-thiadiazol-2-amine], the IC50 in assay [1] (read-out: IC50 value) was < 125 nM. Besides, the minimal inhibitory concentration (MIC) in assay [2] was > 10 µM.

`Cc1ccn(C(C)c2nnc(Nc3ccn(Cc4c(F)ccc(C)c4F)n3)s2)n1` (stereo not drawn) [Example 86, N-{1-[(2,6-difluoro-3-methylphenyl)methyl]-1H-pyrazol-3-yl}-5-[1-(3-methyl-1H-pyrazol-1-yl)ethyl]-1,3,4-thiadiazol-2-amine]: in assay [1] (IC50 value), the half-maximal inhibitory concentration (IC50) is < 120 nM. Also, in assay [2], the minimum inhibitory concentration (MIC) is ≤ 1 µM.

`Cc1cc(C)n(Cc2nnc(Nc3ccn(Cc4ccccc4)n3)s2)n1` [Example 64, 5-[(3,5-dimethyl-1H-pyrazol-1-yl)methyl]-N-[1-(phenylmethyl)-1H-pyrazol-3-yl]-1,3,4-thiadiazol-2-amine]: the IC50 in assay [1] (read-out: IC50 value) fell in the range of 274 to 1370 nM. Moreover, the MIC in assay [2] is > 10 µM.

Turning to `O=[N+]([O-])c1ccn(Cc2nnc(Nc3ccn(Cc4c(Cl)cccc4Cl)n3)s2)n1` [Example 47, N-{1-[(2,6-dichlorophenyl)methyl]-1H-pyrazol-3-yl}-5-[(3-nitro-1H-pyrazol-1-yl)methyl]-1,3,4-thiadiazol-2-amine], the IC50 in assay [1] (IC50 value) was < 111 nM. Moreover, in assay [2], the minimum inhibitory concentration (MIC) is > 10 µM.

As to `Cc1cc(C(F)F)nn1Cc1nnc(Nc2ccn(Cc3ccccc3Cl)n2)s1` [Example 46, N-{1-[(2-chlorophenyl)methyl]-1H-pyrazol-3-yl}-5-{[3-(difluoromethyl)-5-methyl-1H-pyrazol-1-yl]methyl}-1,3,4-thiadiazol-2-amine], the IC50 in assay [1] (IC50 value) was < 115 nM. The minimum inhibitory concentration (MIC) in assay [2] was > 10 µM.

`COC(C)(c1nc(C)cs1)c1nnc(Nc2ccn(Cc3c(F)cccc3Cl)n2)s1` (stereo not drawn) [Example 72, N-{1-[(2-chloro-6-fluorophenyl)methyl]-1H-pyrazol-3-yl}-5-[1-(methyloxy)-1-(4-methyl-1,3-thiazol-2-yl)ethyl]-1,3,4-thiadiazol-2-amine]: the IC50 in assay [1] (read-out: IC50 value) was < 108 nM. This compound came in with a minimum inhibitory concentration (MIC) in assay [2] of 1 to 4 µM (≈ 0.465 to 1.86 µg/mL).

`Fc1cccc(Cl)c1Cn1ccc(Nc2nnc(Cn3ccc(C(F)(F)F)n3)s2)n1` [Example 63, N-{1-[(2-chloro-6-fluorophenyl)methyl]-1H-pyrazol-3-yl}-5-{[3-(trifluoromethyl)-1H-pyrazol-1-yl]methyl}-1,3,4-thiadiazol-2-amine]: the IC50 in assay [1] (read-out: IC50 value) lay in the range of 218 to 1090 nM. Besides, in assay [2], the MIC was > 10 µM.

On to `Cc1csc(C(C)(O)c2nnc(Nc3ccn(Cc4cccc(Cl)c4F)n3)s2)n1` (stereo not drawn) [Example 79, 1-[5-({1-[(3-chloro-2-fluorophenyl)methyl]-1H-pyrazol-3-yl}amino)-1,3,4-thiadiazol-2-yl]-1-(4-methyl-1,3-thiazol-2-yl)ethanol], for which the IC50 in assay [1] (IC50 value) is < 111 nM. In addition, in assay [2], the minimum inhibitory concentration (MIC) is ≤ 1 µM.

Regarding `Cc1ccn(C(C)c2nnc(Nc3ccn(Cc4c(F)cccc4Cl)n3)s2)n1` (racemic) [Example 38, N-{1-[(2-chloro-6-fluorophenyl)methyl]-1H-pyrazol-3-yl}-5-[1-(3-methyl-1H-pyrazol-1-yl)ethyl]-1,3,4-thiadiazol-2-amine], the IC50 in assay [1] (read-out: IC50 value) was < 120 nM. Further, the MIC in assay [2] was ≤ 1 µM.

In the case of `Cc1cc(C)n(C(C)c2nnc(Nc3ccn(Cc4cc(N)ccc4Cl)n3)s2)n1` (stereo not drawn) [Example 26, N-{1-[(5-amino-2-chlorophenyl)methyl]-1H-pyrazol-3-yl}-5-[1-(3,5-dimethyl-1H-pyrazol-1-yl)ethyl]-1,3,4-thiadiazol-2-amine], the IC50 in assay [1] (read-out: IC50 value) was < 117 nM. Also, in assay [2], the MIC is > 10 µM.

In the case of `Cc1csc(C(C)c2nnc(Nc3ccn(Cc4cccc(C)c4F)n3)s2)n1` (stereo not drawn) [Example 25, N-{1-[(2-fluoro-3-methylphenyl)methyl]-1H-pyrazol-3-yl}-5-[1-(4-methyl-1,3-thiazol-2-yl)ethyl]-1,3,4-thiadiazol-2-amine], the 50% inhibitory concentration (IC50) in assay [1] (read-out: IC50 value) was < 121 nM. Besides, the MIC in assay [2] was 1 to 4 µM (≈ 0.415 to 1.66 µg/mL).

On to `Cc1csc(C(C)(O)c2nnc(Nc3ccn(Cc4c(F)cccc4F)n3)s2)n1` (racemic) [Example 78, 1-[5-({1-[(2,6-difluorophenyl)methyl]-1H-pyrazol-3-yl}amino)-1,3,4-thiadiazol-2-yl]-1-(4-methyl-1,3-thiazol-2-yl)ethanol], for which, in assay [1] (IC50 value), the half-inhibitory concentration (IC50) was < 115 nM. In addition, the MIC in assay [2] was ≤ 1 µM.

In the case of `Cc1cc([N+](=O)[O-])nn1Cc1nnc(Nc2ccn(Cc3ccccc3)n2)s1` [Example 62, 5-[(5-methyl-3-nitro-1H-pyrazol-1-yl)methyl]-N-[1-(phenylmethyl)-1H-pyrazol-3-yl]-1,3,4-thiadiazol-2-amine], the IC50 in assay [1] (read-out: IC50 value) was in the range of 252 to 1260 nM. Besides, the minimal inhibitory concentration (MIC) in assay [2] was > 10 µM.

In the case of `Cc1cc(C)n(C(C)c2nnc(Nc3ccn(Cc4cccc(C)c4F)n3)s2)n1` (stereo not drawn) [Example 24, 5-[1-(3,5-dimethyl-1H-pyrazol-1-yl)ethyl]-N-{1-[(2-fluoro-3-methylphenyl)methyl]-1H-pyrazol-3-yl}-1,3,4-thiadiazol-2-amine], the IC50 in assay [1] (read-out: IC50 value) was < 122 nM. For the same compound, the MIC in assay [2] is ≤ 1 µM.

In turn, `Cc1cc(C(F)F)nn1Cc1nnc(Nc2ccn(Cc3ccccc3)n2)s1` [Example 45, 5-{[3-(difluoromethyl)-5-methyl-1H-pyrazol-1-yl]methyl}-N-[1-(phenylmethyl)-1H-pyrazol-3-yl]-1,3,4-thiadiazol-2-amine] came in with an IC50 in assay [1] (IC50 value) of 125 to 249 nM. Further, the minimal inhibitory concentration (MIC) in assay [2] is > 10 µM.

Turning to `Cc1csc([C@@](C)(O)c2nnc(Nc3ccn(Cc4c(F)cccc4Cl)n3)s2)n1` (single isomer, unassigned) [Example 71], the IC50 in assay [1] (read-out: IC50 value) is < 111 nM. The compound also showed a minimum inhibitory concentration (MIC) in assay [2] of 1 to 4 µM (≈ 0.451 to 1.8 µg/mL).

With `Cc1csc(C(C)(O)c2nnc(Nc3ccn(Cc4cccc(F)c4F)n3)s2)n1` (stereo not drawn) [Example 80, 1-[5-({1-[(2,3-difluorophenyl)methyl]-1H-pyrazol-3-yl}amino)-1,3,4-thiadiazol-2-yl]-1-(4-methyl-1,3-thiazol-2-yl)ethanol], in assay [1] (IC50 value), the half-maximal inhibitory concentration (IC50) was < 115 nM. In addition, the MIC in assay [2] was ≤ 1 µM.

Consider `Cc1cc(C)n(C(C)c2nnc(Nc3ccn(Cc4c(F)cccc4F)n3)s2)n1` (stereo not drawn) [Example 12, N-{1-[(2,6-difluorophenyl)methyl]-1H-pyrazol-3-yl}-5-[1-(3,5-dimethyl-1H-pyrazol-1-yl)ethyl]-1,3,4-thiadiazol-2-amine], for which the IC50 in assay [1] (read-out: IC50 value) is < 120 nM. In addition, in assay [2], the minimal inhibitory concentration (MIC) was ≤ 1 µM.

`Cc1csc([C@](C)(O)c2nnc(Nc3ccn(Cc4c(F)cccc4Cl)n3)s2)n1` (single isomer, unassigned) [Example 70]: the half-maximal inhibitory concentration (IC50) in assay [1] (read-out: IC50 value) was < 111 nM. The MIC in assay [2] is ≤ 1 µM.

Regarding `CC(=O)Nc1ccc(F)c(Cn2ccc(Nc3nnc(C(C)n4nc(C)cc4C)s3)n2)c1F` (stereo not drawn) [Intermediate 122, N-(3-{[3-({5-[1-(3,5-dimethyl-1H-pyrazol-1-yl)ethyl]-1,3,4-thiadiazol-2-yl}amino)-1H-pyrazol-1-yl]methyl}-2,4-difluorophenyl)acetamide], the IC50 in assay [1] (IC50 value) was 106 to 212 nM. Also, the MIC in assay [2] is > 10 µM.

With `Cc1ccn(C(C)c2nnc(Nc3ccn(Cc4cccc(Cl)c4F)n3)s2)n1` (stereo not drawn) [Example 14, N-{1-[(3-chloro-2-fluorophenyl)methyl]-1H-pyrazol-3-yl}-5-[1-(3-methyl-1H-pyrazol-1-yl)ethyl]-1,3,4-thiadiazol-2-amine], in assay [1] (read-out: IC50 value), the IC50 was < 120 nM. For the same compound, the minimal inhibitory concentration (MIC) in assay [2] lay in the range of 1 to 4 µM (≈ 0.418 to 1.67 µg/mL).

In the case of `Cc1ccn([C@H](C)c2nnc(Nc3ccn(Cc4c(F)cccc4Cl)n3)s2)n1` (single isomer, unassigned) [Example 66], the IC50 in assay [1] (read-out: IC50 value) was < 120 nM. The compound also returned a minimal inhibitory concentration (MIC) in assay [2] of 1 to 4 µM (≈ 0.418 to 1.67 µg/mL).

Turning to `Cc1cc(C)n([C@H](C)c2nnc(Nc3ccn(Cc4c(F)cccc4Cl)n3)s2)n1` (single isomer, unassigned) [Example 68], the IC50 in assay [1] (read-out: IC50 value) is < 116 nM. Moreover, the MIC in assay [2] is > 10 µM.

For the compound `Cc1ccn(Cc2nnc(Nc3ccn(Cc4ccccc4)n3)s2)n1` [Example 60, 5-[(3-methyl-1H-pyrazol-1-yl)methyl]-N-[1-(phenylmethyl)-1H-pyrazol-3-yl]-1,3,4-thiadiazol-2-amine], the half-inhibitory concentration (IC50) in assay [1] (read-out: IC50 value) was 285 to 1420 nM. The MIC in assay [2] is > 10 µM.

Turning to `Cc1cc(C)n(C(C)c2nnc(Nc3ccn(Cc4cc(C(F)(F)F)ccc4C(F)(F)F)n3)s2)n1` (stereo not drawn) [Example 8, N-(1-{[2,5-bis(trifluoromethyl)phenyl]methyl}-1H-pyrazol-3-yl)-5-[1-(3,5-dimethyl-1H-pyrazol-1-yl)ethyl]-1,3,4-thiadiazol-2-amine], the IC50 in assay [1] (read-out: IC50 value) is < 97 nM. The minimum inhibitory concentration (MIC) in assay [2] was > 10 µM.

For the compound `Cc1csc(Cc2nnc(Nc3ccn(Cc4c(F)cccc4Cl)n3)s2)n1` [Example 32, N-{1-[(2-chloro-6-fluorophenyl)methyl]-1H-pyrazol-3-yl}-5-[(4-methyl-1,3-thiazol-2-yl)methyl]-1,3,4-thiadiazol-2-amine], the half-inhibitory concentration (IC50) in assay [1] (read-out: IC50 value) is < 119 nM. In addition, the minimum inhibitory concentration (MIC) in assay [2] is 4 to 10 µM (≈ 1.68 to 4.21 µg/mL).

The compound `Cc1cc(C)n(C(C)c2nnc(Nc3ccn(Cc4ccc(C(F)(F)F)cc4)n3)s2)n1` (stereo not drawn) [Example 35, 5-[1-(3,5-dimethyl-1H-pyrazol-1-yl)ethyl]-N-(1-{[4-(trifluoromethyl)phenyl]methyl}-1H-pyrazol-3-yl)-1,3,4-thiadiazol-2-amine] displayed an IC50 in assay [1] (IC50 value) of 223 to 1120 nM. Also, the MIC in assay [2] was > 10 µM.
